pKd: −log10 of the molar value.

This is an account of results in paper PMC12931155, “Colorectal Cancer Cell's Weapon: RNF32 Engages SPP1^+ Macrophages to Foster Liver Metastasis, Targeted by Indole‐3‐Acetic Acid” (Advanced Science, 2025).

This experiment concerns the target T1, RNF32 (GFP-RNF32) (Homo sapiens, UniProt Q9H0A6).
T1 construct: GFP-RNF32 fusion from plasmid, expressed in HCT116 cells, diluted cell lysate (not purified)
The experiment can be described thus: microscale thermophoresis, GFP-RNF32 in HCT116 lysate. Type of experiment: biochemical.

T1 sequence (Q9H0A6 whole entry, the tested form may be a part): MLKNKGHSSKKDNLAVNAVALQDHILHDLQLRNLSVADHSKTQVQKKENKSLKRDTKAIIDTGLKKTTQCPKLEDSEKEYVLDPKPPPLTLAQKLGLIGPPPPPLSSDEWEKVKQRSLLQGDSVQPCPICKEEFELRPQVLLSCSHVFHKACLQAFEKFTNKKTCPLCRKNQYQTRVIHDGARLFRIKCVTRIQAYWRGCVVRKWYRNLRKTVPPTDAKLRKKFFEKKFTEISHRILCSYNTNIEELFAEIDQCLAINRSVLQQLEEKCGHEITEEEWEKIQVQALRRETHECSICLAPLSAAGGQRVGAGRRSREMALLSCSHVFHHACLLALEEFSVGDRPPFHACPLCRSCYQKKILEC

Take `O=C(O)Cc1c[nH]c2ccccc12` [indole‐3‐acetic acid]: the pKd was 4.38.
